How the values were obtained:
Type in all cases: in vivo
[1] = test system: goosegrass (Eleusine indica); assay: Test A1 preemergence, goosegrass
Outline: (§1)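 Herbicidal response was scored on plants treated either preemergence, by directed spray onto soil of a loam–sand blend after sowing, or postemergence on potted plants at the one- to two-leaf stage, 2–10 cm high. Test chemicals were carried in a non-phytotoxic solvent mix with surfactant.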

[2] = test system: ragweed (common ragweed, Ambrosia artemisiifolia); assay: Test A1 preemergence, ragweed
Outline: as §1

[3] = test system: goosegrass (Eleusine indica); assay: Test A1 postemergence, goosegrass; details: Postemergence
Outline: (§2)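 Plants grown in pots of loam/sand mix; preemergence = soil-directed spray on seeded pots, postemergence = spray at 1–2 leaves, height 2–10 cm; test chemicals formulated in non-phytotoxic solvent with surfactant.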

[4] = test system: wheat (Triticum aestivum); assay: Test A1 preemergence, wheat
Outline: as §1

[5] = test system: Pigweed, Palmer (palmer amaranth, palmer pigweed, Amaranthus palmeri); assay: Test A1 postemergence, Pigweed, Palmer; details: Postemergence
Outline: (§3)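 Postemergence species (ragweed, Palmer pigweed, wild oat) were sprayed at one- to two-leaf stage, 2 to 10 cm tall. Corn was treated preemergence by directed soil spray. Both used a loam soil/sand blend and compounds in a non-phytotoxic solvent mixture with surfactant.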

corn (Zea mays) = assay: Test A1 postemergence, corn; details: Postemergence
Outline: as §1

soybean (Glycine max) = assay: Test A1 postemergence, soybean; details: Postemergence
Outline: as §2

[6] = test system: ragweed (common ragweed, Ambrosia artemisiifolia); assay: Test A1 postemergence, ragweed; details: Postemergence
Outline: as §3

[7] = test system: Oat, Wild (wild oat, Avena fatua); assay: Test A1 preemergence, Oat, Wild
Outline: as §1

kochia (Bassia scoparia) = assay: Test A1 postemergence, kochia; details: Postemergence
Outline: as §2

[8] = 31 g ai/ha, 0 to 100 scale (0 no effect, 100 complete control)
[9] = 125 g ai/ha, 0 to 100 scale, 0 no effect, 100 complete control
[10] = 31 g ai/ha, 0 to 100 scale (0 no effect, 100 complete control), 10 days

Compound | Plant response rating, Goosegrass [1, 8] | Plant response rating, Goosegrass [1, 9] | Plant response rating, Ragweed [2, 8] | Plant response rating, Ragweed [2, 9] | Plant response rating, Goosegrass [3, 10] | Plant response rating, Goosegrass ([3]; 125 g ai/ha, 0 to 100 scale) | Plant response rating, Wheat [4, 8] | Plant response rating, Wheat [4, 9] | Plant response rating, Pigweed, Palmer [5, 10] | Plant response rating, Pigweed, Palmer ([5]; 125 g ai/ha, 0 to 100 scale) | Plant response rating, Corn (corn (Zea mays); [10]) | Plant response rating, Corn (corn (Zea mays); 125 g ai/ha, 0 to 100 scale) | Plant response rating, Soybean (soybean (Glycine max); [10]) | Plant response rating, Soybean (soybean (Glycine max); 125 g ai/ha, 0 to 100 scale) | Plant response rating, Ragweed [6, 10] | Plant response rating, Ragweed ([6]; 125 g ai/ha, 0 to 100 scale) | Plant response rating, Oat, Wild [7, 8] | Plant response rating, Oat, Wild [7, 9] | Plant response rating, Kochia (kochia (Bassia scoparia); [10]) | Plant response rating, Kochia (kochia (Bassia scoparia); 125 g ai/ha, 0 to 100 scale)
CCOC(=O)N(c1cc(C(=O)N2CCC(F)(F)CC2)c(C)cc1C)S(=O)(=O)C(F)(F)F [Compound 351] | 40 | 100 | 50 | 90 | 40 | 90 | 10 | 50 | 10 | 20 | 0 | 70 | 30 | 50 | 70 | 90 | 10 | 30 | 10 | 30
Cc1cc(C)c(N(COC(=O)C(C)(C)C)S(=O)(=O)C(F)(F)F)cc1C1=NOC2OCCC12 (stereo not drawn) [Compound 352] | 90 | 100 | 60 | 90 | 80 | 90 | 10 | 20 | 20 | 60 | 20 | 80 | 20 | 60 | 70 | 90 | 0 | 20 | 50 | 70
Cc1cc(C)c(N(COC(=O)C(C)(C)C)S(=O)(=O)C(F)(F)F)cc1C(=O)N1CCC(C)CC1 [Compound 353] | 20 | 70 | 20 | 20 | 0 | 30 | 0 | 0 | 0 | 30 | 0 | 0 | 50 | 60 | 20 | 60 | 0 | 0 | 10 | 50
CCOC(=O)N(c1cc(C(=O)N2CCC(C)CC2)c(C)cc1C)S(=O)(=O)C(F)(F)F [Compound 354] | 70 | 100 | 20 | 50 | 0 | 100 | 0 | 30 | 0 | 10 | 0 | 0 | 50 | 60 | 40 | 50 | 0 | 0 | 40 | 50
Cc1cc(C2CC2)c(C2=NOC3CCCC23)cc1N(COC(=O)C(C)(C)C)S(=O)(=O)C(F)(F)F (stereo not drawn) [Compound 355] | 20 | 90 | 0 | 40 | 0 | 70 | 10 | 10 | 0 | 30 | 0 | 20 | 10 | 40 | 60 | 60 | 0 | 0 | 0 | 50
Cc1c(NS(=O)(=O)C(F)(F)F)cc(C(=O)N2CCC(Cl)CC2)c(C)c1C [Compound 356] | 90 | 90 | 0 | 0 | 0 | 70 | 0 | 30 | 0 | 10 | 0 | 40 | 50 | 80 | 70 | 80 | 0 | 20 | 10 | 50
Cc1c(C(=O)N2CCC(Cl)CC2)cc(N(COC(=O)C(C)(C)C)S(=O)(=O)C(F)(F)F)c(C)c1C [Compound 359] | 0 | 90 | 0 | 80 | 0 | 20 | 0 | 0 | 0 | 20 | 0 | 0 | 50 | 60 | 30 | 70 | 0 | 0 | 30 | 40
Cc1c(C(=O)N2CCC(F)(F)CC2)cc(N(COC(=O)C(C)(C)C)S(=O)(=O)C(F)(F)F)c(C)c1C [Compound 360] | 0 | 90 | 60 | 80 | 0 | 40 | 0 | 10 | 20 | 40 | 0 | 0 | 20 | 40 | 70 | 90 | 0 | 0 | 30 | 50
Cc1c(C(=O)N2CCC(F)CC2)cc(N(COC(=O)C(C)(C)C)S(=O)(=O)C(F)(F)F)c(C)c1C [Compound 361] | 10 | 100 | 20 | 90 | 0 | 30 | 0 | 0 | 10 | 20 | 0 | 40 | 50 | 70 | 60 | 80 | 0 | 0 | 0 | 50
